Data: article PMC10879502, “Linking ATP and allosteric sites to achieve superadditive binding with bivalent EGFR kinase inhibitors” (Communications Chemistry, 2024)

What was measured:
Experiment in all cases: KINOMEscan
Assay type in all cases: binding
Settings in all cases: 1 μM
ABL2 = target: T1, ABL2 (Homo sapiens, UniProt P42684)
T1 construct: purchased Eurofins DiscoverX Corporation

AKT2 = AKT2 (Homo sapiens, UniProt P31751)
BRAF(V600E) = target: T2, BRAF(V600E) (Homo sapiens, UniProt P15056, V600E)
T2 construct: purchased Eurofins DiscoverX Corporation (KINOMEscan)

CDK11 = CDK11 (Homo sapiens, UniProt Q9BWU1)
CDK5 = CDK5 (Homo sapiens, UniProt Q00535)
CSNK1E = target: T3, CSNK1E (Homo sapiens, UniProt P49674)
T3 construct: purchased Eurofins DiscoverX Corporation

CSNK1G3 = target: T4, CSNK1G3 (Homo sapiens, UniProt Q9Y6M4)
T4 construct: purchased Eurofins DiscoverX Corporation

CSNK2A1 = target: T5, CSNK2A1 (Homo sapiens, UniProt P68400)
T5 construct: purchased Eurofins DiscoverX Corporation

ERBB3 = ERBB3 (Homo sapiens, UniProt P21860)
FES = FES (Homo sapiens, UniProt P07332)
FGFR2 = FGFR2 (Homo sapiens, UniProt P21802)
FGFR3(G697C) = FGFR3(G697C) (Homo sapiens, UniProt P22607, G697C)
FGR = FGR (Homo sapiens, UniProt P09769)
GRK7 = target: T6, GRK7 (Homo sapiens, UniProt Q8WTQ7)
T6 construct: purchased Eurofins DiscoverX Corporation

HIPK3 = target: T7, HIPK3 (Homo sapiens, UniProt Q9H422)
T7 construct: purchased Eurofins DiscoverX Corporation

IGF1R = target: T8, IGF1R (Homo sapiens, UniProt P08069)
T8 construct: purchased Eurofins DiscoverX (KINOMEscan)

ITK = target: T9, ITK (Homo sapiens, UniProt Q08881)
T9 construct: purchased Eurofins DiscoverX (KINOMEscan)

KIT(D816V) = target: T10, KIT(D816V) (Homo sapiens, UniProt P10721, D816V)
T10 construct: purchased Eurofins DiscoverX (KINOMEscan)

KIT(V559D+V654A) = target: T11, KIT(V559D+V654A) (Homo sapiens, UniProt P10721, V559D/V654A)
T11 construct: purchased Eurofins DiscoverX Corporation

LCK = target: T12, LCK (Homo sapiens, UniProt P06239)
T12 construct: purchased Eurofins DiscoverX Corporation

LIMK2 = target: T13, LIMK2 (Homo sapiens, UniProt P53671)
T13 construct: purchased Eurofins DiscoverX Corporation

MEK3 = target: T14, MEK3 (Homo sapiens, UniProt P46734)
T14 construct: purchased Eurofins DiscoverX Corporation

MEK4 = target: T15, MEK4 (Homo sapiens, UniProt P45985)
T15 construct: purchased Eurofins DiscoverX Corporation

MET = target: T16, MET (Homo sapiens, UniProt P08581)
T16 construct: purchased Eurofins DiscoverX Corporation

MRCKA = target: T17, MRCKA (Homo sapiens, UniProt Q5VT25)
T17 construct: purchased Eurofins DiscoverX Corporation

MYO3B = target: T18, MYO3B (Homo sapiens, UniProt Q8WXR4)
T18 construct: purchased Eurofins DiscoverX Corporation

NDR1 = target: T19, NDR1 (Homo sapiens, UniProt Q15208)
T19 construct: purchased Eurofins DiscoverX Corporation

NEK5 = target: T20, NEK5 (Homo sapiens, UniProt Q6P3R8)
T20 construct: purchased Eurofins DiscoverX Corporation

NEK9 = NEK9 (Homo sapiens, UniProt Q8TD19)
PIP5K2B = PIP5K2B (Homo sapiens, UniProt P78356)
PKMYT1 = PKMYT1 (Homo sapiens, UniProt Q99640)
PRKD2 = PRKD2 (Homo sapiens, UniProt Q9BZL6)
QSK = QSK (Homo sapiens, UniProt Q9Y2K2)
RET(M918T) = RET(M918T) (Homo sapiens, UniProt P07949, M918T)
RET(V804L) = RET(V804L) (Homo sapiens, UniProt P07949, V804L)
RIOK1 = RIOK1 (Homo sapiens, UniProt Q9BRS2)
RIOK3 = RIOK3 (Homo sapiens, UniProt O14730)
RIPK2 = RIPK2 (Homo sapiens, UniProt O43353)
SGK2 = SGK2 (Homo sapiens, UniProt Q9HBY8)
SRPK3 = SRPK3 (Homo sapiens, UniProt Q9UPE1)
STK36 = STK36 (Homo sapiens, UniProt Q9NRP7)
TRKB = target: T21, TRKB (Homo sapiens, UniProt Q16620)
T21 construct: purchased Eurofins DiscoverX Corporation

WNK4 = WNK4 (Homo sapiens, UniProt Q96J92)

Chain of RET(M918T) (P07949 29-1114 M918T): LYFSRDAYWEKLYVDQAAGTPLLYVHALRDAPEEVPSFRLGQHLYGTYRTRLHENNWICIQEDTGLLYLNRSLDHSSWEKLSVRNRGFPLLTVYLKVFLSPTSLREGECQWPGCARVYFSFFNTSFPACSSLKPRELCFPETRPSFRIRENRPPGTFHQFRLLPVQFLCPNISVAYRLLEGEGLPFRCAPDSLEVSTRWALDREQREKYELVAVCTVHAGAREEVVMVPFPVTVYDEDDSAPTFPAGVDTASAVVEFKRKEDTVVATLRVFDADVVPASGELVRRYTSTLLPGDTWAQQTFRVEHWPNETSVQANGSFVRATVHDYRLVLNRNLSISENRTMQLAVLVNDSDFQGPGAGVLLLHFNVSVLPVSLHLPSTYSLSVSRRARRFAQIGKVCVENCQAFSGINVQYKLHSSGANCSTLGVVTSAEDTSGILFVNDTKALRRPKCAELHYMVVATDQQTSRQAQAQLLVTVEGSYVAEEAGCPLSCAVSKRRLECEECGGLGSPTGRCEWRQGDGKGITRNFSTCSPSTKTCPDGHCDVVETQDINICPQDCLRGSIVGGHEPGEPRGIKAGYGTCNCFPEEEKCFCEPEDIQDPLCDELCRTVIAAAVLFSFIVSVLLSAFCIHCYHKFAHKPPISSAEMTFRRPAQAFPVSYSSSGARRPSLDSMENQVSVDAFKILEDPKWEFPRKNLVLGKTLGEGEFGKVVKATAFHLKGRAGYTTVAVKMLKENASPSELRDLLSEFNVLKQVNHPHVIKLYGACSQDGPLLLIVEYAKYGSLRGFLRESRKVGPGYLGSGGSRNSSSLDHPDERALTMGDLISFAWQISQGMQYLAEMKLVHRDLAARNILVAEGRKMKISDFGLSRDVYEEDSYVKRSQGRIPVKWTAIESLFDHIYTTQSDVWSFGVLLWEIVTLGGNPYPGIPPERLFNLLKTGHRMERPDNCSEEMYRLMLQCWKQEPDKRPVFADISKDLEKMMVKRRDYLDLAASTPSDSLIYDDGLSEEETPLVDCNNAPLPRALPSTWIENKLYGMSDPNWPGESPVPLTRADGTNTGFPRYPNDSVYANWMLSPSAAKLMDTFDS
Chain of FGFR2 (P21802 22-821): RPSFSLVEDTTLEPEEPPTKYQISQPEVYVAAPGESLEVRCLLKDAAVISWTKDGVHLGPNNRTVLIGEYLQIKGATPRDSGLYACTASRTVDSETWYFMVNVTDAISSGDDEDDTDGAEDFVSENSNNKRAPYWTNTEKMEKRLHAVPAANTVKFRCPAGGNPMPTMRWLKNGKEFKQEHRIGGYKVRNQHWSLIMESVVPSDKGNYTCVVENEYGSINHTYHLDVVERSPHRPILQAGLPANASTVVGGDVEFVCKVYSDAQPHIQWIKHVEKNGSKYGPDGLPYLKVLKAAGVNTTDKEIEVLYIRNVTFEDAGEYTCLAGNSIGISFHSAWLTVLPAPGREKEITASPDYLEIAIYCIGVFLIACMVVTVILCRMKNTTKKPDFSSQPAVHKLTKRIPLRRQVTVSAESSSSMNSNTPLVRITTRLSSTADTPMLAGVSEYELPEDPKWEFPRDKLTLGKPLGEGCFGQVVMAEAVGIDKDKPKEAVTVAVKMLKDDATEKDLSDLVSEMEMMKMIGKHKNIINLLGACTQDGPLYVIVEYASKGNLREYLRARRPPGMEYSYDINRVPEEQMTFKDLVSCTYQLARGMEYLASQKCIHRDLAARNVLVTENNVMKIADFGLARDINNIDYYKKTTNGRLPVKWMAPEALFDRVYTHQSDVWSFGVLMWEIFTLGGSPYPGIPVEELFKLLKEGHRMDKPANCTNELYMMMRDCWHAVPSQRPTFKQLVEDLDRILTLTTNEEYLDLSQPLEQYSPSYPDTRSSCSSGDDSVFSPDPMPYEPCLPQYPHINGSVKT
T20 sequence (Q6P3R8 whole entry): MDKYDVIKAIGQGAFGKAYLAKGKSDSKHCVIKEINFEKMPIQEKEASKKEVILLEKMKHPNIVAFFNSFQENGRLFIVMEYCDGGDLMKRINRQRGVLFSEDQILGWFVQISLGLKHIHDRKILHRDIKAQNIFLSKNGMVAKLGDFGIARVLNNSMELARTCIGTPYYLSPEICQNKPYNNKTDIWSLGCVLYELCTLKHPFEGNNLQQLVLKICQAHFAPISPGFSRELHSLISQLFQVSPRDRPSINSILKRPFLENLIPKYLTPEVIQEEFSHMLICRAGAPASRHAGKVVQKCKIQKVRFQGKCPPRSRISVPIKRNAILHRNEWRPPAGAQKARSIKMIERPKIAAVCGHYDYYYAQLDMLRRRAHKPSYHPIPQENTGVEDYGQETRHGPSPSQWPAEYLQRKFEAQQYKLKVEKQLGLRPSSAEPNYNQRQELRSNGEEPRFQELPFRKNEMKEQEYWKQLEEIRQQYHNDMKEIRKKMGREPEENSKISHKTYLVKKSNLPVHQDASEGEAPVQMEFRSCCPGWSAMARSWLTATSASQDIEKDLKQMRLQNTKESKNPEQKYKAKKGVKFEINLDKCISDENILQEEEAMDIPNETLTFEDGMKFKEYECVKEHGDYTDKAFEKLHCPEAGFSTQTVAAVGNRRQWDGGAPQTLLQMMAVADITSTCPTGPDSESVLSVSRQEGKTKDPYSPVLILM
Chain of ERBB3 (P21860 20-1342): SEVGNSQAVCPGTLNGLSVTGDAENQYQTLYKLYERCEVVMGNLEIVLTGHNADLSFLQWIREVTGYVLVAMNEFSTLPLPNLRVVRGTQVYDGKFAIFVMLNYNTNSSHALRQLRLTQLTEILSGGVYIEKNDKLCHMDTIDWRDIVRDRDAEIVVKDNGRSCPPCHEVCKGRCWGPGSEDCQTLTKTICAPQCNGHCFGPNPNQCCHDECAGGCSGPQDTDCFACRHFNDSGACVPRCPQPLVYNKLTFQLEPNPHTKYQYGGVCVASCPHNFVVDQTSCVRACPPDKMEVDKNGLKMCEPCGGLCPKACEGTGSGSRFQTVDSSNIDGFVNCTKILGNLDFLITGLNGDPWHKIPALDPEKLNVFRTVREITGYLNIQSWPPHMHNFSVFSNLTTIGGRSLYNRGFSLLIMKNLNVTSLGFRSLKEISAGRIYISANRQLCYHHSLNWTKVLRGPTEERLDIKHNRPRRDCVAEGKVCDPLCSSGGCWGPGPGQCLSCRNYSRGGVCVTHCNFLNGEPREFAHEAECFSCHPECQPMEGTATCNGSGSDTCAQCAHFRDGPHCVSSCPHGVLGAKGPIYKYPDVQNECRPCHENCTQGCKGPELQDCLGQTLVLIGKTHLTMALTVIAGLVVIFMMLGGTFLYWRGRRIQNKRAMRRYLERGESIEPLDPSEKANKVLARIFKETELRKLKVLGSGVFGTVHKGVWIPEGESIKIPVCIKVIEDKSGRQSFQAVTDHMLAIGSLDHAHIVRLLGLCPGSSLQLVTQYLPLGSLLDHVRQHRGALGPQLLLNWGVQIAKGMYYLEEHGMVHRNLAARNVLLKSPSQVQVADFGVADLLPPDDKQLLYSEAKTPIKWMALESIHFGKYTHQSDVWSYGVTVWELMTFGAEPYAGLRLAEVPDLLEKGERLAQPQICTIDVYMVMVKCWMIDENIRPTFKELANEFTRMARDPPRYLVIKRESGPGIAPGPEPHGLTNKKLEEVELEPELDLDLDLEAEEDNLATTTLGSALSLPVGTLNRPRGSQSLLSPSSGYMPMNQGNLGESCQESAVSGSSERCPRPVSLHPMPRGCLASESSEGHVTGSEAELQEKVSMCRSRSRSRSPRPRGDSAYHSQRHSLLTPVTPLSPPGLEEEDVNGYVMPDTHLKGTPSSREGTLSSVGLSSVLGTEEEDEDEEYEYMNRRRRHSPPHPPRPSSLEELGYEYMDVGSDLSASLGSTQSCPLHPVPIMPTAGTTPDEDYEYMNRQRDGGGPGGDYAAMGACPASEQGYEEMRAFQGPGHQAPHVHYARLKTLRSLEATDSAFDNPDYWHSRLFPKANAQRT
Chain of FES (P07332 whole entry): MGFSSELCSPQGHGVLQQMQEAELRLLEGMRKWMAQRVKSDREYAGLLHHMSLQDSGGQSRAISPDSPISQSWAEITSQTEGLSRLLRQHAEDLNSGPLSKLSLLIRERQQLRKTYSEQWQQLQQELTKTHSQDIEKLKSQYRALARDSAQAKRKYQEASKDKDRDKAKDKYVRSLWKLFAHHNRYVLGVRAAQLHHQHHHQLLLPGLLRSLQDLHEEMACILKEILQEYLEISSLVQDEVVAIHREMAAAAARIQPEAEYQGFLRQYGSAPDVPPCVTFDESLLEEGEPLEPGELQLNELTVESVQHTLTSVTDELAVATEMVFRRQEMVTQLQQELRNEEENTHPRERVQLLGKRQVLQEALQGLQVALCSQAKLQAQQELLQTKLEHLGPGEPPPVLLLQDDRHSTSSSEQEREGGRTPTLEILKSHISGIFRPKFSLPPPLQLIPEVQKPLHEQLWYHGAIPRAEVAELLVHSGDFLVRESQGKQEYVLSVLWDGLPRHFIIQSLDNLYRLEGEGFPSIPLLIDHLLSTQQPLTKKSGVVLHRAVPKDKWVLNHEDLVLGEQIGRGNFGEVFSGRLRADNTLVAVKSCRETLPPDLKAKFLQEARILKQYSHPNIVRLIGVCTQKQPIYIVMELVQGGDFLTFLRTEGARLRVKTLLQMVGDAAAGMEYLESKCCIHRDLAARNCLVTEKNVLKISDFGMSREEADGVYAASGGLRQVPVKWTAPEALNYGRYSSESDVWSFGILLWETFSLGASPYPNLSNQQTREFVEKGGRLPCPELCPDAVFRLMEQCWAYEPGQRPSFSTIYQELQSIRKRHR
T14 sequence (P46734 whole entry): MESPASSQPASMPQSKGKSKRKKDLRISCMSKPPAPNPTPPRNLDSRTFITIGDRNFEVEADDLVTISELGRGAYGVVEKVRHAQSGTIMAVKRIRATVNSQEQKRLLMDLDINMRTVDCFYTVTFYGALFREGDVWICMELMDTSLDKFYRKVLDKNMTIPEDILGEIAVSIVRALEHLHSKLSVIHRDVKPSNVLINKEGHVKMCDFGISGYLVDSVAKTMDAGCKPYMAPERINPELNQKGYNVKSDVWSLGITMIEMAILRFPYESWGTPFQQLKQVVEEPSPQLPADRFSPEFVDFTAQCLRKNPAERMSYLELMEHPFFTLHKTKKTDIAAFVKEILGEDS

Structure (SMILES): C=CC(=O)Nc1ccc(OC)c(Nc2cc(-c3[nH]c(CC)nc3-c3cccc(NC(=O)c4cccc5c4NC(=O)c4ccccc4N5)c3)ccn2)c1 [Compound 4]
- POC (ABL2): 92% of control
- POC (AKT2): 91% of control
- POC (BRAF(V600E)): 100% of control
- POC (CDK11): 100% of control
- POC (CDK5): 100% of control
- POC (CSNK1E): 88% of control
- POC (CSNK1G3): 98% of control
- POC (CSNK2A1): 100% of control
- POC (ERBB3): 84% of control
- POC (FES): 28% of control
- POC (FGFR2): 100% of control
- POC (FGFR3(G697C)): 100% of control
- POC (FGR): 19% of control
- POC (GRK7): 99% of control
- POC (HIPK3): 100% of control
- POC (IGF1R): 90% of control
- POC (ITK): 87% of control
- POC (KIT(D816V)): 94% of control
- POC (KIT(V559D+V654A)): 93% of control
- POC (LCK): 7.7% of control
- POC (LIMK2): 93% of control
- POC (MEK3): 100% of control
- POC (MEK4): 100% of control
- POC (MET): 69% of control
- POC (MRCKA): 0% of control
- POC (MYO3B): 31% of control
- POC (NDR1): 73% of control
- POC (NEK5): 100% of control
- POC (NEK9): 83% of control
- POC (PIP5K2B): 100% of control
- POC (PKMYT1): 99% of control
- POC (PRKD2): 62% of control
- POC (QSK): 100% of control
- POC (RET(M918T)): 99% of control
- POC (RET(V804L)): 99% of control
- POC (RIOK1): 100% of control
- POC (RIOK3): 100% of control
- POC (RIPK2): 62% of control
- POC (SGK2): 83% of control
- POC (SRPK3): 100% of control
- POC (STK36): 30% of control
- POC (TRKB): 100% of control
- POC (WNK4): 85% of control
